Each block holds one molecule with its values, some of them ahead of it.
Columns and labels:
[1] = Fluorescence microscopy of skin distribution after microinjection into hairless rat skin; type: in vivo
Excerpt: FIG. 17A-B are micrographs showing hairless rat skin microinjected in vivo with FITC-insulin. Histological sections are shown using brightfield microscopy with H&E staining (FIG. 17A) and fluorescence microscopy showing injection and distribution of insulin in the skin (FIG. 17B). Scale bar=100 μm. Single, hollow, glass microneedles were inserted into the back skin of anesthetized rats placed in a prone position or into human cadaver skin (2×2 cm^2) placed on a x-y stage. Compounds delivered included blue tissue-marking dye in PBS (20% v/v, Shandon, Pittsburg, Pa.), green-fluorescent calcein in PBS (10 μM-10 mM, Molecular Probes, Eugene, Oreg.). After microinfusion experiments, skin samples were preserved as described in Example 1. Histological sections of skin were examined by stereoscopic (SZX12, Olympus, Melville, N.Y.) and fluorescence microscopy (IX 70, Olympus). Images were recorded by a digital camera (Spot RT Slider camera, Model 231, Diagnostic Instruments, Sterling Heights, Mich.) and analyzed using image analysis software (Image Pro Plus, version 4.5, Media Cybernetics, Silver Spring, Md.). The volume of injected liquid was imaged in the skin for quantitative analysis using one of three different methods. […] During insulin delivery experiments, rats were anesthetized. […]

[2] = tested on: diabetic hairless rats; experiment: Blood glucose in diabetic hairless rats after insulin microinfusion through a hollow microneedle; type: in vivo, rat
Method: During insulin delivery experiments, rats were anesthetized. Microneedle infusion was carried out as described in Example 4, using clinical insulin solution (100 U/ml, Humulin R, Eli Lilly, Indianapolis, Ind.), and FITC-labeled insulin in PBS (1 mg/ml, Sigma).
As a companion experiment, insulin was microinjected into the skin of diabetic hairless rats in vivo and blood glucose concentration was monitored over time. Microinjection was carried out via microneedle insertion to a depth of 500-800 μm and infusing for 30 min. The volume of insulin solution microinjected into diabetic rat skin was 5±1 μl over the 30-min infusion period. Over a 4.5-h monitoring period after infusion, blood glucose level dropped and then plateaued at approximately 25% below pre-treatment values. […] Data expressed as mean±SEM.
Recognizing that needle retraction can increase microinfusion, the insulin delivery experiment was repeated by inserting microneedles to the same initial depth in the skin and then retracting by 150-200 μm back toward the skin surface. […] The volume of insulin solution microinjected into diabetic rat skin after needle retraction was 29±12 μl over the 30-min infusion period. […]

[3] = Effect of hyaluronidase on microneedle infusion flow rate into human cadaver skin in vitro; details: 200 U/ml hyaluronidase in sulforhodamine solution vs without; bevel-tip microneedle inserted 1080 μm; 138 kPa; ANOVA p≦0.01
Method: To measure flow rate into skin during microneedle infusion, a single microneedle was inserted into human cadaver skin to microinfuse sulforhodamine solution and the infusion flow rate was measured over time. As an aid to visualizing flow into skin, sulforhodamine-B dye (Molecular Probes, Eugene, Oreg.) was added to PBS, stirred, and filtered (0.2 μm pore size, Nalge Nunc International, Rochester, N.Y.) to make 1×10^−3 M sulforhodamine solution. […]
The flow rate of sulforhodamine solution microinjection was determined by following movement of the gas-liquid meniscus in the syringe reservoir over time with a digital video camera (DCR-TRV460, Sony, Tokyo, Japan) and image analysis software (Adobe Photoshop 7.0, Adobe Systems, San Jose, Calif.) after converting the captured movie into sequences of still images (Adobe Premiere 6.0, Adobe Systems). […]
The effect of hyaluronidase was determined by comparing to an infusion fluid containing 200 U/ml hyaluronidase prepared by mixing 3 ml of hyaluronidase solution (Vitrase™, 200 U/ml, ISTA Pharmaceuticals, Irvine, Calif.) with 7 mL of 1×10^−3 M sulforhodamine solution. […] Microinfusion flow rate was measured as a function of retraction distance during infusion in the absence (white bars) or presence (black bars) of hyaluronidase. Data are expressed as mean values (n≧3) with standard deviation bars. […]

Molecule: fluorescently labeled insulin: FITC-labeled insulin in PBS (1 mg/ml, Sigma)
distribution in skin after microinjection (fluorescence) ([1]; rat, in vivo): distribute throughout the dermis

Molecule: insulin
blood glucose level drop below pre-treatment values ([2]; microneedle inserted 500-800 μm, no retraction, 30-min infusion of 100 U/ml insulin solution (5±1 μl injected), 4.5-h monitoring after infusion, plateau): approximately 25%
blood glucose level drop below pre-treatment values ([2]; microneedle inserted to same depth then retracted 150-200 μm, 30-min infusion of 100 U/ml insulin solution (29±12 μl injected)): approximately 70%

increase in infusion flow rate [3]: 7 fold
Molecule: hyaluronidase

Molecule: O=C(O)CN(CC(=O)O)Cc1cc2c(cc1O)Oc1cc(O)c(CN(CC(=O)O)CC(=O)O)cc1C21OC(=O)c2ccccc21 [calcein]
distribution in skin after microinjection (fluorescence) ([1]; injection at a specific location within the dermis, histological sections): fluoresced more uniformly in both dermis and epidermis
